Measurements published in patent publication US6355799B1, “Substituted benzene compounds, process for their preparation, and herbicidal and defoliant compositions containing them” (ISK Americas Incorporated, priority 1997, dated 2002).

Tests used:
Format in all cases: in vivo
[1] = test system: redroot pigweed (Amaranthus retroflexus, AMARE); experiment: Pre-emerge test, greenhouse herbicide activity screening; conditions: rated 14 days after application, 0 = no damage, 100 = complete death
Method in brief: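 Visual ratings on a 0-100 scale (0 no damage, 100 all plants dead) were taken at 14 days after treatment. Rates of 15-1000 g ai/ha in acetone, 187 l/ha, were sprayed onto soil one day after planting (pre-emerge) or onto 2-3 leaf plants with 0.25% v/v surfactant (post-emerge).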

[2] = test system: johnsongrass (Sorghum halepense, SORHA); experiment: as above; conditions: rated 14 days after application, 0 = no damage, 100 = complete death
Method in brief: (§1)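 Plants grown in 10 cm pots of sandy loam mix received acetone-dissolved compounds through a moving flat-fan nozzle. Doses ranged from 15 to 1000 g ai/ha. Pre-emerge pots were seeded one day earlier, post-emerge pots 8–21 days earlier. Fourteen days on, each pot was graded 0–100 for damage.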

[3] = test system: green foxtail (Setaria viridis, SETVI); experiment: as above; conditions: rated 14 days after application, 0 = no damage, 100 = complete death
Method in brief: as §1

[4] = test system: ivyleaf morningglory (Ipomoea hederacea, IPOHE); experiment: as above; conditions: rated 14 days after application, 0 = no damage, 100 = complete death
Method in brief: as §1

[5] = test system: velvetleaf (Abutilon theophrasti, ABUTH); experiment: as above; conditions: rated 14 days after application, 0 = no damage, 100 = complete death
Method in brief: as §1

[6] = test system: large crabgrass (Digitaria sanguinalis, DIGSA); experiment: as above; conditions: rated 14 days after application, 0 = no damage, 100 = complete death
Method in brief: as §1

[7] = test system: lambsquarters (Chenopodium album, CHEAL); experiment: as above; conditions: rated 14 days after application, 0 = no damage, 100 = complete death
Method in brief: as §1

[8] = test system: barnyardgrass (Echinochloa crus-galli, ECHCG); experiment: as above; conditions: rated 14 days after application, 0 = no damage, 100 = complete death
Method in brief: as §1

[9] = test system: sicklepod (Cassia obtusifolia, CASOB); experiment: as above; conditions: rated 14 days after application, 0 = no damage, 100 = complete death
Method in brief: as §1

[10] = test system: field corn (Zea mays L., var. Dekalb 535, CORN); experiment: Pre-emerge test, crop safety; conditions: rated 14 days after application, 0 = no damage, 100 = complete death
Method in brief: as §1

[11] = test system: upland rice (Oryza sp., var. Tebonnet, RICE); experiment: Pre-emerge test, crop safety; conditions: rated 14 days after application, 0 = no damage, 100 = complete death
Method in brief: as §1

[12] = test system: redroot pigweed (Amaranthus retroflexus, AMARE); experiment: Post-emerge test, greenhouse herbicide activity screening; conditions: post-emerge, 14 days after application, rating scale 0-100
Method in brief: (§2)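 Sandy loam pots; pre-emerge: sown 1 d pre-spray, surface-watered after, then bottom-watered. Post-emerge: sown 8–21 d before, 2–3 leaf stage, + 0.25% v/v NIS, bottom-watered. Acetone, 187 l/ha track spray, 15–1000 g ai/ha. 0–100 injury score, day 14.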

[13] = test system: johnsongrass (Sorghum halepense, SORHA); experiment: as above; conditions: post-emerge, 14 days after application, rating scale 0-100
Method in brief: as §2

[14] = test system: green foxtail (Setaria viridis, SETVI); experiment: as above; conditions: post-emerge, 14 days after application, rating scale 0-100
Method in brief: as §2

[15] = test system: ivyleaf morningglory (Ipomoea hederacea, IPOHE); experiment: as above; conditions: post-emerge, 14 days after application, rating scale 0-100
Method in brief: as §2

[16] = test system: velvetleaf (Abutilon theophrasti, ABUTH); experiment: as above; conditions: post-emerge, 14 days after application, rating scale 0-100
Method in brief: as §2

[17] = test system: large crabgrass (Digitaria sanguinalis, DIGSA); experiment: as above; conditions: post-emerge, 14 days after application, rating scale 0-100
Method in brief: as §2

[18] = test system: lambsquarters (Chenopodium album, CHEAL); experiment: as above; conditions: post-emerge, 14 days after application, rating scale 0-100
Method in brief: as §2

[19] = test system: barnyardgrass (Echinochloa crus-galli, ECHCG); experiment: as above; conditions: post-emerge, 14 days after application, rating scale 0-100
Method in brief: as §2

[20] = test system: sicklepod (Cassia obtusifolia, CASOB); experiment: as above; conditions: post-emerge, 14 days after application, rating scale 0-100
Method in brief: as §2

[21] = test system: field corn (Zea mays L., var. Dekalb 535, CORN); experiment: Post-emerge test, crop safety; conditions: post-emerge, 14 days after application, rating scale 0-100
Method in brief: (§3)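 Each test used a mechanized track sprayer delivering 187 l/ha of acetone solution at 15–1000 g ai/ha. Post-emerge foliage at 2–3 leaves was treated with added 0.25% v/v non-ionic surfactant and bottom-watered only. Injury was assessed on day 14, where 100 means total kill.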

[22] = test system: upland rice (Oryza sp., var. Tebonnet, RICE); experiment: Post-emerge test, crop safety; conditions: post-emerge, 14 days after application, rating scale 0-100
Method in brief: as §3

For COc1c(Cl)cc(F)c(-n2c(=O)cc(C(F)(F)F)n(C)c2=O)c1NC(=O)CCc1ccccc1 [2-86], the “Pre-emerge Herbicidal Activity, phytotoxicity rating (0-100), AMARE” value ([1]; 63 g ai/ha) was 100, the “Pre-emerge Herbicidal Activity, phytotoxicity rating (0-100), AMARE” value ([1]; 250 g ai/ha) was 100 and the “Pre-emerge Herbicidal Activity, phytotoxicity rating (0-100), SORHA” value ([2]; 63 g ai/ha) was 99. For the same compound, the “Pre-emerge Herbicidal Activity, phytotoxicity rating (0-100), SORHA” value ([2]; 250 g ai/ha) was 100, the “Pre-emerge Herbicidal Activity, phytotoxicity rating (0-100), SETVI” value ([3]; 63 g ai/ha) was 100 and the “Pre-emerge Herbicidal Activity, phytotoxicity rating (0-100), SETVI” value ([3]; 250 g ai/ha) was 100. For the same compound, the “Pre-emerge Herbicidal Activity, phytotoxicity rating (0-100), IPOHE” value ([4]; 63 g ai/ha) was 90, the “Pre-emerge Herbicidal Activity, phytotoxicity rating (0-100), IPOHE” value ([4]; 250 g ai/ha) was 100 and the “Pre-emerge Herbicidal Activity, phytotoxicity rating (0-100), ABUTH” value ([5]; 63 g ai/ha) was 100. For the same compound, the “Pre-emerge Herbicidal Activity, phytotoxicity rating (0-100), ABUTH” value ([5]; 250 g ai/ha) was 100, the “Pre-emerge Herbicidal Activity, phytotoxicity rating (0-100), DIGSA” value ([6]; 63 g ai/ha) was 100 and the “Pre-emerge Herbicidal Activity, phytotoxicity rating (0-100), DIGSA” value ([6]; 250 g ai/ha) was 100. The “Pre-emerge Herbicidal Activity, phytotoxicity rating (0-100), CHEAL” value ([7]; 63 g ai/ha) was 100, the “Pre-emerge Herbicidal Activity, phytotoxicity rating (0-100), CHEAL” value ([7]; 250 g ai/ha) was 100 and the “Pre-emerge Herbicidal Activity, phytotoxicity rating (0-100), ECHCG” value ([8]; 63 g ai/ha) was 95. The “Pre-emerge Herbicidal Activity, phytotoxicity rating (0-100), ECHCG” value ([8]; 250 g ai/ha) was 100, the “Pre-emerge Herbicidal Activity, phytotoxicity rating (0-100), CASOB” value ([9]; 63 g ai/ha) was 100 and the “Pre-emerge Herbicidal Activity, phytotoxicity rating (0-100), CASOB” value ([9]; 250 g ai/ha) was 95. The “Pre-emerge phytotoxicity rating (0-100), crop damage, CORN” value ([10]; 63 g ai/ha) was 95, the “Pre-emerge phytotoxicity rating (0-100), crop damage, CORN” value ([10]; 250 g ai/ha) was 99 and the “Pre-emerge phytotoxicity rating (0-100), crop damage, RICE” value ([11]; 63 g ai/ha) was 90. The “Pre-emerge phytotoxicity rating (0-100), crop damage, RICE” value ([11]; 250 g ai/ha) was 99, the “phytotoxicity rating AMARE” value ([12]; 63 g ai/ha) was 100 and the “phytotoxicity rating AMARE” value ([12]; 250 g ai/ha) was 100. The “phytotoxicity rating SORHA” value ([13]; 63 g ai/ha) was 70, the “phytotoxicity rating SORHA” value ([13]; 250 g ai/ha) was 100 and the “phytotoxicity rating SETVI” value ([14]; 63 g ai/ha) was 90. For the same compound, the “phytotoxicity rating SETVI” value ([14]; 250 g ai/ha) was 100, the “phytotoxicity rating IPOHE” value ([15]; 63 g ai/ha) was 100 and the “phytotoxicity rating IPOHE” value ([15]; 250 g ai/ha) was 100. The “phytotoxicity rating ABUTH” value ([16]; 63 g ai/ha) was 100, the “phytotoxicity rating ABUTH” value ([16]; 250 g ai/ha) was 100 and the “phytotoxicity rating DIGSA” value ([17]; 63 g ai/ha) was 30. The “phytotoxicity rating DIGSA” value ([17]; 250 g ai/ha) was 95, the “phytotoxicity rating CHEAL” value ([18]; 63 g ai/ha) was 100 and the “phytotoxicity rating CHEAL” value ([18]; 250 g ai/ha) was 100. The “phytotoxicity rating ECHCG” value ([19]; 63 g ai/ha) was 90, the “phytotoxicity rating ECHCG” value ([19]; 250 g ai/ha) was 100 and the “phytotoxicity rating CASOB” value ([20]; 63 g ai/ha) was 100. The “phytotoxicity rating CASOB” value ([20]; 250 g ai/ha) was 100, the “phytotoxicity rating CORN” value ([21]; 63 g ai/ha) was 90 and the “phytotoxicity rating CORN” value ([21]; 250 g ai/ha) was 100. For the same compound, the “phytotoxicity rating RICE” value ([22]; 63 g ai/ha) was 80 and the “phytotoxicity rating RICE” value ([22]; 250 g ai/ha) was 100.
